Measured values as given in US8470804B2, “11a, 12-derivatives of tetracycline compounds” (Paratek Pharmaceuticals, Inc., priority 2005, dated 2013).

Tests used:
EAE induced mice = test: In vivo experimental autoimmune encephalomyelitis (EAE) murine model; parameters: species or system C57BL/6 female mice; conditions: IP injections 50 mg/kg each day from day 10 (onset of disease); minocycline control at same dose
Method: In this example, a mouse model was used to determine the ability of the tetracycline compounds to treat demyelination related diseases. Other models which can be used are described in Brundula V. et al. Brain 2002 June; 125 (Pt 6): 1297-308 and Popovic N. et al. Ann Neural. 2002 February; 51(2):215-23.
To induce EAE, 6 week old C57BL/6 female mice were injected subcutaneously with 200 ug of myelin oligodendrocyte glycoprotein peptide (MOG 35-55) emulsified in 200 μL of complete Freund's adjuvant containing an additional 4 mg/mL of heat killed M. tuberculosis. Mice were additionally injected intravenously (tail vein) with 150 ng of lyophilized pertussis toxin resuspended in 150 μL PBS at time 0 and again 48 hours later. In this model, the mice developed progressive posterior to anterior advancing paralysis with symptoms first appearing at 10-12 days and progressing to severe paralysis by approximately 21 days. Severity of EAE was scored daily according to the following criteria: 0, healthy; 1, limp tail; 2, partial paralysis of one or two hind limbs; 3, complete paralysis of the hind limbs; 4, complete hind limb paralysis and forelimb paraparesis; 5, moribund. All test experiments included control groups of EAE induced mice treated with vehicle only or treated with minocycline, with 10 mice per group. […]

common bacteria = test: In vitro minimum inhibitory concentration (MIC) assay; type: cell-based, E. coli, S. aureus, Enterococcus sp.; conditions: broth microdilution in CAMHB, 35° C., approximately 18 hours
Method: The following assay was used to determine the efficacy of tetracycline compounds against common bacteria. 2 mg of each compound were dissolved in 100 μl of DMSO. […] The tetracycline compound solutions were diluted to 50 μl, volumes, with a test compound concentration of 0.098 μg/ml. Optical density (OD) determinations were made from fresh log-phase broth cultures of the test strains. Dilutions were made to achieve a final cell density of 1×10^6 CFU/ml. At OD=1, cell densities for different genera were approximately: [table] 50 μl of the cell suspensions were added to each well of microtiter plates. The final cell density should be approximately 5×10^5 CFU/ml. These plates are incubated at 35° C. in an ambient air incubator for approximately 18 hours. The plates are read with a microplate reader and are visually inspected when necessary. The MIC was defined as the lowest concentration of the tetracycline compound that inhibits growth.

Structure (SMILES)	activity in EAE model (severity of EAE scored daily 0-5) compared with minocycline (EAE induced mice)	antibacterial activity (MIC) (common bacteria)
CNC1C2C(=O)c3c(O)cccc3[C@H](C)[C@H]2[C@H](O)[C@H]2[C@H](N(C)C)C(O)=C(C(N)=O)C(=O)[C@@]12O (stereo partly drawn) [12-methylamino-12-dehydrodoxycycline, (4S,4aR,5S,5aR,6R,12aS)-4-Dimethylamino-3,5,10,12a-tetrahydroxy-6-methyl-12-methylamino-1,11-dioxo-1,4,4a,5,5a,6,11,11a,12,12a-decahydro-naphthacene-2-carboxylic acid amide]	activity similar to or better than minocycline	–
C[C@H]1c2ccc(N(C)C)c(O)c2C(=O)C2=C[C@]3(O)C(=O)C(C(N)=O)=C(O)[C@@H](N(C)C)[C@@H]3[C@@H](O)[C@@H]21 [9-bis-dimethylamino-12-dehydrodoxycline, (4S,4aR,5S,5aR,6R,12aR)-4,9-Bis-dimethylamino-3,5,10,12a-tetrahydroxy-6-methyl-1,11-dioxo-1,4,4a,5,5a,6,11,12a-octahydro-naphthacene-2-carboxylic acid amide]	–	low antibacterial activity
C[C@H]1c2ccc(N)c(O)c2C(=O)C2=C[C@]3(O)C(=O)C(C(N)=O)=C(O)[C@@H](N(C)C)[C@@H]3[C@@H](O)[C@@H]21 [9-Amino-12-dehydrodoxycline, (4S,4aR,5S,5aR,6R,12aR)-9-Amino-4-dimethylamino-3,5,10,12a-tetrahydroxy-6-methyl-1,11-dioxo-1,4,4a,5,5a,6,11,12a-octahydro-naphthacene-2-carboxylic acid amide]	–	low antibacterial activity
C[C@H]1c2cccc(O)c2C(=O)C2=C[C@]3(O)C(=O)C(C(N)=O)=C(O)[C@@H](N(C)C)[C@@H]3[C@@H](O)[C@@H]21 [12-dehydrodoxycycline, (4S,4aR,5S,5aR,6R,12aR)-4-Dimethylamino-3,5,10,12a-tetrahydroxy-6-methyl-1,11-dioxo-1,4,4a,5,5a,6,11,12a-octahydro-naphthacene-2-carboxylic acid amide]	activity similar to or better than minocycline	low antibacterial activity
